Test results from paper PMC8615111, “Phenolic Thiazoles with Antioxidant and Antiradical Activity. Synthesis, In Vitro Evaluation, Toxicity, Electrochemical Behavior, Quantum Studies and Antimicrobial Screening” (Antioxidants, 2021).
Converted amounts (≈) assume the structure as drawn. Like-named read-outs stand apart in the source and are kept apart here.

Assays:
[1] = ABTS˙^+ radical scavenging assay; type: biochemical
Description: The assay was based on the decolorization of green (2,2′-azinobis-(3-ethylbenzothiazoline-6-sulfonic acid) ABTS˙^+ to ABTS, on the principle reported by Re et al. and was carried out according to our previously published research.
Later, 1950 µL of ABTS˙^+ reagent was added to all cuvettes and they were shaken for well over 10 min in the dark at room temperature. The absorbance of the resulted solutions found in cuvettes was determined spectrophotometrically at λ = 734 nm. The ABTS scavenging activity of the compounds was calculated using the following Equation (1):(1) ABTS scavenging (%)=control absorbance−sample absorbance/control absorbance×100

[2] = DPPH˙ radical scavenging assay; type: biochemical; conditions: for IC50: DPPH˙ scavenging
Description: The 2,2-diphenyl-1-picrylhydrazyl (DPPH˙) radical scavenging assay is based on the transfer of one hydrogen from the analyzed compound to the violet radical DPPH˙. This will convert it to a yellow compound, the change in absorbance being proportional to the amount of DPPH˙ neutralized, according to Brand-Williams et al..
The preparation of the DPPH˙ reagent was previously reported by our group. […] Over the previous quantities, DMSO was added until a total volume of 50 µL was obtained in all cuvettes, and 1950 µL of DPPH˙ solution was added to all cuvettes; then, they were shaken for well over 10 min in the dark at room temperature. The absorbances of the solutions were measured at λ = 517 nm. The DPPH˙ radical scavenging activity of evaluated compounds was calculated using Equation (2):(2) DPPH scavenging (%)=control absorbance−sample absorbance/control absorbance×100

[3] = TEMPO scavenging by differential pulse voltammetry; conditions: 2 mM TEMPO, one hour incubation, 0.1 M HClO4, DPV
Description: The antioxidant properties were evaluated in terms of their activity against some free radicals, and other compounds reported in the literature, relevant for this purpose, such as: • ferric ions (Fe^3+)—used to test the reduction of the antioxidant character of the compounds; • DPPH˙ free radical– used to test the scavenging effect of the compounds on this radical; • hydrogen peroxide (H2O2)—used to test the scavenging effect of the synthesized molecules on this compound; • 2,2,6,6-tetramethylpiperidinyl-1-oxy (TEMPO)—used to test the scavenging effect of the synthesized molecules on this compound.
TEMPO (2,2,6,6-tetramethylpiperidine-N-oxyl) is a stable organic nitroxide radical that has been reported to scavenge carbon-centered radicals.
Differential pulse voltammetry (DPV) was then applied in order to evaluate the antioxidant effectiveness of the novel compounds through their ability to scavenge the free radical species.

HaCaT cells = assay: Cytotoxicity determination, MTT method; type: cell-based; conditions: Homo sapiens, 24 h
Description: To determine the cytotoxic action of the obtained compounds 5[…], and 8a-b, a normal human keratinocytes cell line was used (HaCaT keratinocytes, CLS-300493, Eppelheim, Germany). HaCaT cells were cultured in Dulbecco's Modified Eagle Media (DMEM) supplemented with 1% L-glutamine, 1% penicillin-streptomycin, and 5% fetal bovine serum. At 80% confluence, the cells were transferred to 96 well plates at a confluence of 12×10^3 cells/well and left to attach for 24 h at 37°C and 5% CO2 in a humidified atmosphere. […] After 24 h, the culture media was replaced with 100 μL of MTT solution at a final concentration of 5 μg/mL/well and left to interact with the cells for 2 h in the incubator. After this, the MTT solution was replaced with 100 μL of isopropanol, left to dissolve the formazan crystals for 5 min, and read at 550 and 630 nm using a BioTek Epoch plate reader (BioTek Instruments, Winooski, VT, USA) and Gen5 software (version 1.09).

S. pyogenes ATCC 19615 = assay: Antimicrobial activity, modified microdilution; type: cell-based; conditions: Streptococcus pyogenes, ATCC19615
Description: (§1) For evaluating the antimicrobial activity of the compounds, […] aerobic microbial strains were used: S. aureus ATCC 25923, S. pyogenes ATCC 19615, P. aeruginosa ATCC 27853, S. enterica ISM 83/37, S. typhimurium ATCC 14028, E. coli ATCC 8739, E. coli ATCC 25922, and C. albicans ATCC 102310 obtained from Food Biotechnology Laboratory, Life Sciences Institute, University of Agricultural Sciences, and Veterinary Medicine Cluj Napoca, where the experiment was performed. The antimicrobial activity of the compounds was determined using a modified microdilution technique, and the followed protocol was previously reported.
(§2) The antimicrobial activity of the final compounds, against seven aerobic microbial strains (S. aureus ATCC 25923, S. pyogenes ATCC 19615, P. aeruginosa ATCC 27853, S. enterica ISM 83/37, S. typhimurium ATCC 14028, E. coli ATCC 8739, E. coli ATCC 25922), and a fungal strain (C. albicans ATCC 102310), was determined using a modified microdilution technique.
(§3) The results of the antimicrobial activity evaluation of the compounds, in comparison to norfloxacin and chloramphenicol used as standard antibiotics and fluconazole used as reference antifungal, are depicted in Table 10.

S. enterica ISM 83/37 = assay: Antimicrobial activity, modified microdilution; type: cell-based; conditions: Salmonella enterica, ISM83/37
Description: as §1, §2, §3

E. coli ATCC 8739 = assay: Antimicrobial activity, modified microdilution; type: cell-based; conditions: Escherichia coli, ATCC8739
Description: as §1, §2, §3

S. aureus ATCC 25923 = assay: Antimicrobial activity, modified microdilution; type: cell-based; conditions: Staphylococcus aureus, ATCC25923
Description: as §1, §2, §3

P. aeruginosa ATCC 27853 = assay: Antimicrobial activity, modified microdilution; type: cell-based; conditions: Pseudomonas aeruginosa, ATCC27853
Description: as §1, §2, §3

E. coli ATCC 25922 = assay: Antimicrobial activity, modified microdilution; type: cell-based; conditions: Escherichia coli, ATCC25922
Description: as §1, §2, §3

[4] = tested on: S. typhimurium ATCC 14028; assay: Antimicrobial activity, modified microdilution; type: cell-based; conditions: Salmonella enterica
Description: as §1, §2, §3

C. albicans ATCC 102310 = assay: Antifungal activity, modified microdilution; type: cell-based; conditions: Candida albicans, ATCC102310
Description: as §1, §2, §3

[5] = NO˙ radical scavenging assay (Griess reaction); type: biochemical; conditions: 100 µL of test solution 1 mg/mL in DMSO, 150 min, pH 7.4
Description: Scavenging of the NO˙ radical was performed according to some adapted protocols reported in the literature, based on the nitroprusside decomposition at physiological pH and colorimetric quantification of the resulted products using the Griess reaction.
Over 200 µL of 10 mM sodium nitroprusside, 100 µL of test solutions (1 mg/mL in DMSO), and 400 µL phosphate-buffered saline (PBS, pH = 7.4) were added. The mixture was then incubated at room temperature for 150 min on a rotating shaker (GFL Gesellschaft für Labortechnik, Burgwedel, Germany). After that, 1 mL of sulfanilic acid 0.33% in 20% acetic acid was added and after 5 min, 1 mL of naphthylethylenediamine […] 0.1% was added to all test tubes. After 30 min, the absorbance of the sample, given by the chromophore (azo dye) formed during the diazotization of nitrite ions resulting from decomposition of sodium nitroprusside with sulfanilic acid and coupled with naphthylethylenediamine, was measured at 546 nm. The NO˙ radical scavenging activity of the tested compounds was calculated using Equation (3):(3) NO˙ scavenging (%)=control absorbance−sample absorbance/control absorbance×100

Fe^2+ chelation assay = type: biochemical
Description: The protocol used for assessing Fe^2+ chelating capacity of the compounds was adapted from a report of Benzie and Strain and previously reported by our group. The iron(II) chelation ability of compounds was calculated using Equation (7):(7) iron chelation (%)=control absorbance−sample absorbance/control absorbance×100
The chelating potential for the ferrous ions of the new compounds was determined, based on their competition for Fe^2+ with ferrozine.

Cu^2+ chelation assay = type: biochemical

Compound: O=C1O[C@H]([C@@H](O)CO)C(O)=C1O [Ascorbic acid, reference compound]
- % of ABTS˙^+ Scavenged ([1]; 0.5 µg/mL): 9.56%
- % of ABTS˙^+ Scavenged ([1]; 0.75 µg/mL): 14.32%
- % of ABTS˙^+ Scavenged ([1]; 1 µg/mL): 20.61%
- % of ABTS˙^+ Scavenged ([1]; 1.5 µg/mL): 38.24%
- % of ABTS˙^+ Scavenged ([1]; 2.5 µg/mL): 64.58%
- IC50 ([1]; ABTS˙^+ scavenging): 1.97 µg/mL (≈ 11.2 µM)
- % of DPPH˙ Scavenged ([2]; 1 µg/mL): 19.39%
- % of DPPH˙ Scavenged ([2]; 1.5 µg/mL): 29.10%
- % of DPPH˙ Scavenged ([2]; 2 µg/mL): 38.27%
- % of DPPH˙ Scavenged ([2]; 3 µg/mL): 53.42%
- % of DPPH˙ Scavenged ([2]; 5 µg/mL): 80.28%
- IC50 [2]: 2.89 µg/mL (≈ 16.4 µM)
- oxidation signal for TEMPO after incubation with the compound [3]: decreases
- IC50 (HaCaT cells; HaCaT): 22.8 µg/mL
- IC50 (HaCaT cells; HaCaT cells, MTT, read-out: IC50): 129 µM

Compound: O=C(N[C@H](CO)[C@H](O)c1ccc([N+](=O)[O-])cc1)C(Cl)Cl [Chloramphenicol, reference compound]
- MIC (S. pyogenes ATCC 19615): 3.9 µg/mL (≈ 12.1 µM)
- MIC (S. enterica ISM 83/37): 3.9 µg/mL (≈ 12.1 µM)
- MIC (E. coli ATCC 8739): 7.8 µg/mL (≈ 24.1 µM)
- MIC (S. aureus ATCC 25923): 7.8 µg/mL (≈ 24.1 µM)
- MIC (P. aeruginosa ATCC 27853): 0.48 µg/mL (≈ 1.49 µM)
- MIC (E. coli ATCC 25922): 3.9 µg/mL (≈ 12.1 µM)
- MIC [4]: < 0.48 µg/mL

Compound: OC(Cn1cncn1)(Cn1cncn1)c1ccc(F)cc1F [Fluconazole, reference compound]
- MIC (C. albicans ATCC 102310): 31.2 µg/mL (≈ 102 µM)

Compound: O=C(O)c1cc(O)ccc1O [Gentisic acid, reference compound]
- % of NO˙ Scavenged [5]: 47.33%

Compound: CCn1cc(C(=O)O)c(=O)c2cc(F)c(N3CCNCC3)cc21 [Norfloxacin, reference compound]
- MIC (S. pyogenes ATCC 19615): < 0.48 µg/mL
- MIC (S. enterica ISM 83/37): < 0.48 µg/mL
- MIC (E. coli ATCC 8739): < 0.48 µg/mL
- MIC (S. aureus ATCC 25923): 0.48 µg/mL (≈ 1.5 µM)
- MIC (P. aeruginosa ATCC 27853): 7.8 µg/mL (≈ 24.4 µM)
- MIC (E. coli ATCC 25922): 7.8 µg/mL (≈ 24.4 µM)
- MIC [4]: < 0.48 µg/mL

Compound: Cc1c(C)c2c(c(C)c1O)CCC(C)(C(=O)O)O2 (centres unmarked) [Trolox, reference compound]
- % of DPPH˙ Scavenged ([2]; 1 µg/mL): 10.83%
- % of DPPH˙ Scavenged ([2]; 1.5 µg/mL): 17.10%
- % of DPPH˙ Scavenged ([2]; 2 µg/mL): 20.56%
- % of DPPH˙ Scavenged ([2]; 3 µg/mL): 31.91%
- % of DPPH˙ Scavenged ([2]; 5 µg/mL): 53.67%
- IC50 [2]: 4.68 µg/mL (≈ 18.7 µM)
- % of NO˙ Scavenged [5]: 32.12%

Compound: disodium salt of ethylenediaminetetraacetic acid [EDTA-Na2, reference compound]
- Chelation Capacity (%), ferrous ions (Fe^2+ chelation assay; 50 µg/mL): 20.86%
- Chelation Capacity (%), ferrous ions (Fe^2+ chelation assay; 100 µg/mL): 57.32%
- Chelation Capacity (%), ferrous ions (Fe^2+ chelation assay; 150 µg/mL): >95.00%
- Chelation Capacity (%), ferrous ions (Fe^2+ chelation assay; 200 µg/mL): >95.00%
- Chelation Capacity (%), cupric ions (Cu^2+ chelation assay; 3.36 µg/mL): 12.36%
- Chelation Capacity (%), cupric ions (Cu^2+ chelation assay; 6.72 µg/mL): 19.61%
- Chelation Capacity (%), cupric ions (Cu^2+ chelation assay; 10.08 µg/mL): 29.97%
- Chelation Capacity (%), cupric ions (Cu^2+ chelation assay; 13.44 µg/mL): 39.18%
- Chelation Capacity (%), cupric ions (Cu^2+ chelation assay; 16.80 µg/mL): 45.86%
